According to publication PMC5605198, “MELK is not necessary for the proliferation of basal-like breast cancer cells” (eLife, 2017):
Like-named read-outs stand apart in the source and are kept apart here.

Experiments:
[1] = target: SmMLCK (Homo sapiens, UniProt Q15746); test: ICKP radiometric kinase assay; format: biochemical; details: for remaining activity at 1 µM: read-out: % AR (% kinase activity remaining)
[2] = target: ERK1 (Homo sapiens, UniProt P27361); test: ICKP radiometric kinase assay; format: biochemical; details: read-out: % AR (% kinase activity remaining)
[3] = target: SGK1 (Homo sapiens, UniProt O00141); test: ICKP radiometric kinase assay; format: biochemical; details: read-out: % AR (% kinase activity remaining)
[4] = target: MARK2 (Homo sapiens, UniProt Q7KZI7); test: ICKP radiometric kinase assay; format: biochemical; details: read-out: % AR (% kinase activity remaining)
[5] = target: SIK2 (Homo sapiens, UniProt Q9H0K1); test: ICKP radiometric kinase assay; format: biochemical; details: read-out: % AR (% kinase activity remaining)
[6] = target: NUAK1 (Homo sapiens, UniProt O60285); test: ICKP radiometric kinase assay; format: biochemical; details: read-out: % AR (% kinase activity remaining)
[7] = target: MKK1 (Homo sapiens, UniProt Q02750); test: ICKP radiometric kinase assay; format: biochemical; details: read-out: % AR (% kinase activity remaining)
[8] = target: GCK (Homo sapiens, UniProt Q12851); test: ICKP radiometric kinase assay; format: biochemical; details: read-out: % AR (% kinase activity remaining)
[9] = target: NEK6 (Homo sapiens, UniProt Q9HC98); test: ICKP radiometric kinase assay; format: biochemical; details: read-out: % AR (% kinase activity remaining)
[10] = tested on: panel of breast cancer cell lines; test: 3-day proliferation assays, panel summary; format: cell-based
From the text: As shRNA-mediated knockdown of MELK was previously reported to inhibit the proliferation of BBC cells, we next tested whether pharmacological inhibition of MELK would have similar effects. We treated a panel of breast cancer cell lines, including MDA-MB-468 and ZR-75-1 cells, with HTH-01-091 and other MELK inhibitors; despite our focus on basal-like breast cancers, we included luminal cell lines for comparison. […] We evaluated the inhibitors in longer-term (7-day) proliferation assays and still observed the same trend, and no clear difference between the breast cancer subtypes (Table 4). We authenticated our MDA-MB-468 line by short tandem repeat analysis, and repeated the proliferation assays using MDA-MB-468 cells from a second source to confirm the modest antiproliferative effects of the selective inhibitors (Table 4).

[11] = tested on: PHK; test: ICKP radiometric kinase assay; format: biochemical; details: 1 μM
[12] = target: NEK2a (Homo sapiens, UniProt P51955); test: ICKP radiometric kinase assay; format: biochemical; details: read-out: % AR (% kinase activity remaining)
[13] = target: Src (Homo sapiens, UniProt P12931); test: ICKP radiometric kinase assay; format: biochemical; details: read-out: % AR (% kinase activity remaining)
[14] = target: JAK2 (Homo sapiens, UniProt O60674); test: ICKP radiometric kinase assay; format: biochemical; details: read-out: % AR (% kinase activity remaining)
[15] = tested on: T-47D; test: Cell proliferation assay (CellTiter-Glo); details: Homo sapiens, T47D
[16] = target: IKK beta (Homo sapiens, UniProt O14920); test: ICKP radiometric kinase assay; format: biochemical; details: read-out: % AR (% kinase activity remaining)
[17] = target: CHK2 (Homo sapiens, UniProt O96017); test: ICKP radiometric kinase assay; format: biochemical; details: read-out: % AR (% kinase activity remaining)
[18] = target: FGF-R1 (Homo sapiens, UniProt P11362); test: ICKP radiometric kinase assay; format: biochemical; details: read-out: % AR (% kinase activity remaining)
[19] = target: MAPKAP-K2 (Homo sapiens, UniProt P49137); test: ICKP radiometric kinase assay; format: biochemical; details: read-out: % AR (% kinase activity remaining)
[20] = target: VEGFR1 (Homo sapiens, UniProt P17948); test: ICKP radiometric kinase assay; format: biochemical; details: read-out: % AR (% kinase activity remaining)
[21] = target: p38 alpha (Homo sapiens, UniProt Q16539); test: ICKP radiometric kinase assay; format: biochemical; details: read-out: % AR (% kinase activity remaining)
[22] = target: p38 gamma (Homo sapiens, UniProt P53778); test: ICKP radiometric kinase assay; format: biochemical; details: read-out: % AR (% kinase activity remaining)
[23] = target: S6K1 (Homo sapiens, UniProt P23443); test: ICKP radiometric kinase assay; format: biochemical; details: read-out: % AR (% kinase activity remaining)
[24] = target: EPH-A4 (Homo sapiens, UniProt P54764); test: ICKP radiometric kinase assay; format: biochemical; details: read-out: % AR (% kinase activity remaining)
[25] = target: MKK2 (Homo sapiens, UniProt P36507); test: ICKP radiometric kinase assay; format: biochemical; details: read-out: % AR (% kinase activity remaining)
[26] = target: CDK9-Cyclin T1 (Homo sapiens, UniProt P50750); test: ICKP radiometric kinase assay; format: biochemical; details: read-out: % AR (% kinase activity remaining)
[27] = target: CAMK1 (Homo sapiens, UniProt Q14012); test: ICKP radiometric kinase assay; format: biochemical; details: read-out: % AR (% kinase activity remaining)
[28] = target: JNK1 (Homo sapiens, UniProt P45983); test: ICKP radiometric kinase assay; format: biochemical; details: read-out: % AR (% kinase activity remaining)
[29] = target: PKC zeta (Homo sapiens, UniProt Q05513); test: ICKP radiometric kinase assay; format: biochemical; details: read-out: % AR (% kinase activity remaining)
[30] = target: CLK2 (Homo sapiens, UniProt P49760); test: ICKP radiometric kinase assay; format: biochemical; details: read-out: % AR (% kinase activity remaining)
[31] = target: Lck (Homo sapiens, UniProt P06239); test: ICKP radiometric kinase assay; format: biochemical; details: read-out: % AR (% kinase activity remaining)
[32] = target: SRPK1 (Homo sapiens, UniProt Q96SB4); test: ICKP radiometric kinase assay; format: biochemical; details: read-out: % AR (% kinase activity remaining)
[33] = target: PIM3 (Homo sapiens, UniProt Q86V86); test: ICKP radiometric kinase assay; format: biochemical; details: read-out: % AR (% kinase activity remaining)
[34] = target: CAMKK beta (Homo sapiens, UniProt Q96RR4); test: ICKP radiometric kinase assay; format: biochemical; details: read-out: % AR (% kinase activity remaining)
[35] = target: PDGFRA (Homo sapiens, UniProt P16234); test: ICKP radiometric kinase assay; format: biochemical; details: read-out: % AR (% kinase activity remaining)
[36] = target: TGFBR1 (Homo sapiens, UniProt P36897); test: ICKP radiometric kinase assay; format: biochemical; details: read-out: % AR (% kinase activity remaining)
[37] = target: PLK1 (Homo sapiens, UniProt P53350); test: ICKP radiometric kinase assay; format: biochemical; details: read-out: % AR (% kinase activity remaining)
[38] = target: IKK epsilon (Homo sapiens, UniProt Q14164); test: ICKP radiometric kinase assay; format: biochemical; details: read-out: % AR (% kinase activity remaining)
[39] = 72 h, read-out: 3-day antiproliferative IC50
[40] = 168 h, read-out: 7-day antiproliferative IC50

Chain of NEK6 (Q9HC98 whole entry): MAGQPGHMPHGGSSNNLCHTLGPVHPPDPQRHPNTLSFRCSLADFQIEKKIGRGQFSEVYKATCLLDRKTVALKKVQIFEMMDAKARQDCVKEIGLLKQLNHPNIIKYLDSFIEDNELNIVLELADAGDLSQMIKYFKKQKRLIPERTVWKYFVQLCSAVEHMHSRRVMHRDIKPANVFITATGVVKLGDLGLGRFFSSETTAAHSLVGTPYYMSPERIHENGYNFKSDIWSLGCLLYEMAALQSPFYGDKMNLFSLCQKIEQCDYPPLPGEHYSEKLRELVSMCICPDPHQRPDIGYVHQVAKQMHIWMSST
Chain of SGK1 (O00141 whole entry): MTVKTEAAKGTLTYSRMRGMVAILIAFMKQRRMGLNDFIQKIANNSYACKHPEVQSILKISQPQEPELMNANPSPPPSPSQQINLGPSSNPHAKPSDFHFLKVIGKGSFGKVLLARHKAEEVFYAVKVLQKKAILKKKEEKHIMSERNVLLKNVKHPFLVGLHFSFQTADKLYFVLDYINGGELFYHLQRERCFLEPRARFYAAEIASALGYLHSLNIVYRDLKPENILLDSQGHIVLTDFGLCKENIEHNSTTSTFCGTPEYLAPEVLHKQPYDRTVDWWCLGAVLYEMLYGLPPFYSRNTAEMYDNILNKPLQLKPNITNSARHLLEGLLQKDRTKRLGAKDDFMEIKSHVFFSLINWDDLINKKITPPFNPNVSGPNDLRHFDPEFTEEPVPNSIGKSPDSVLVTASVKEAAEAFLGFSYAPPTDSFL
Chain of IKK epsilon (Q14164 whole entry): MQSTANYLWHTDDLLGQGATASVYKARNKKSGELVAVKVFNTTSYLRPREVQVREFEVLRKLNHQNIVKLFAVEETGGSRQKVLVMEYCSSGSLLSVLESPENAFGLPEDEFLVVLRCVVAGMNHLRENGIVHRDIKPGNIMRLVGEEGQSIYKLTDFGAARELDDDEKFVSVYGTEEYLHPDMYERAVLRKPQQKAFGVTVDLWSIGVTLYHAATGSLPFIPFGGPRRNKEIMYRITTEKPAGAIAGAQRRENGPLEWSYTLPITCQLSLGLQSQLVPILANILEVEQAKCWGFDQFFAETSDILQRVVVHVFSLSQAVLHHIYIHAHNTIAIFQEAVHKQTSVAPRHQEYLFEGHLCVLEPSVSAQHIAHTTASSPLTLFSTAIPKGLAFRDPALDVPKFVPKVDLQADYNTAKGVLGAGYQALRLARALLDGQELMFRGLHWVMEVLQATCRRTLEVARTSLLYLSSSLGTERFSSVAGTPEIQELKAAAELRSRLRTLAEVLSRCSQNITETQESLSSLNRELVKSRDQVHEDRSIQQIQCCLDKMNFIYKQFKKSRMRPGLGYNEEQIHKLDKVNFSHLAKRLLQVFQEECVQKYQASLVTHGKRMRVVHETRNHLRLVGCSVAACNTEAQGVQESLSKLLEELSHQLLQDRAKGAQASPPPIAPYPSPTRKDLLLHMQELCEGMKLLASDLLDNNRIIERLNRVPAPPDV
Chain of NUAK1 (O60285 whole entry): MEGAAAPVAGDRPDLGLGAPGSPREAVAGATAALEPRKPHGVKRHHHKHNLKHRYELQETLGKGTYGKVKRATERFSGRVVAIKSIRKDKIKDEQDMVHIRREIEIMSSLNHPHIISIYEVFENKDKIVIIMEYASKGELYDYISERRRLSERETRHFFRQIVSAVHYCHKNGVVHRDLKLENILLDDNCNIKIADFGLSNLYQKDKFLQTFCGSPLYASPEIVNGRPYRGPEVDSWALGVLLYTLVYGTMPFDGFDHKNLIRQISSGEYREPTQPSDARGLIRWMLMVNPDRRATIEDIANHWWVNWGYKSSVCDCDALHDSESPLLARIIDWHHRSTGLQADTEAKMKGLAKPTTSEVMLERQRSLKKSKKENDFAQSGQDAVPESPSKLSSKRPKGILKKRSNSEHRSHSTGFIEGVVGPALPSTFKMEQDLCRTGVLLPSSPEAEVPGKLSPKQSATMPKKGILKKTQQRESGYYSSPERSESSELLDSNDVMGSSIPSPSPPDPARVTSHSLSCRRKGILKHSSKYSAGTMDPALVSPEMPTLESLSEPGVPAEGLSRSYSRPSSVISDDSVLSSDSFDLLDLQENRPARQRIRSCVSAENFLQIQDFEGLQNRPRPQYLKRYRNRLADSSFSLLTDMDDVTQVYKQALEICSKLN
Chain of SRPK1 (Q96SB4 whole entry): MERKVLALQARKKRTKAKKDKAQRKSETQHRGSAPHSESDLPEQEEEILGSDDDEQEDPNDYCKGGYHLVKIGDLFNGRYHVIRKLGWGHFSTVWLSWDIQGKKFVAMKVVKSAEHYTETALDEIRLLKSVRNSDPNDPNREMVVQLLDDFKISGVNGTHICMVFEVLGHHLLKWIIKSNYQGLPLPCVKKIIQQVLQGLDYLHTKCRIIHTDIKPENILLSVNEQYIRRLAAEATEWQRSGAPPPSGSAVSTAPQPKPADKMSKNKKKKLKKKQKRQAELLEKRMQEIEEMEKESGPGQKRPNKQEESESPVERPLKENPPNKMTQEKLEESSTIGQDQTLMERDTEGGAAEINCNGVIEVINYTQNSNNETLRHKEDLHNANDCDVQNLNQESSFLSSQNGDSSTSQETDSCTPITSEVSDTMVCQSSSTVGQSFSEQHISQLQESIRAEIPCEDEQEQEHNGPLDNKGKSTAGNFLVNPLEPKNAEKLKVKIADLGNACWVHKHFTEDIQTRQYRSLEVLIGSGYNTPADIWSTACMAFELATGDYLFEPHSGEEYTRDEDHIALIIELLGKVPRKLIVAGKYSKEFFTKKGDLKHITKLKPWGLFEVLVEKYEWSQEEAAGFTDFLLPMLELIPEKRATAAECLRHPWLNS
Chain of NEK2a (P51955 whole entry): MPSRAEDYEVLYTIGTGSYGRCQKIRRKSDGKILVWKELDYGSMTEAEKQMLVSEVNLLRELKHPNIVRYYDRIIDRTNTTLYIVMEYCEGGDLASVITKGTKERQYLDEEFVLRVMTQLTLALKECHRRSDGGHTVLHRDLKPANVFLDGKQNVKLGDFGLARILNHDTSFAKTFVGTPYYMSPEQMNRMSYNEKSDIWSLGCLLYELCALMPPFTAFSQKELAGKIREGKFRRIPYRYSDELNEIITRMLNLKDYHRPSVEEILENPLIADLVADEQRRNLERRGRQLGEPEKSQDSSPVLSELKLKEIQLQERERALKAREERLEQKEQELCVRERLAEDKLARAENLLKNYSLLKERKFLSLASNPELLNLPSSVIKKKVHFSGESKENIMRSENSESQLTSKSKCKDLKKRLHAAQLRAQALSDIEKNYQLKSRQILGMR
Chain of p38 alpha (Q16539 whole entry): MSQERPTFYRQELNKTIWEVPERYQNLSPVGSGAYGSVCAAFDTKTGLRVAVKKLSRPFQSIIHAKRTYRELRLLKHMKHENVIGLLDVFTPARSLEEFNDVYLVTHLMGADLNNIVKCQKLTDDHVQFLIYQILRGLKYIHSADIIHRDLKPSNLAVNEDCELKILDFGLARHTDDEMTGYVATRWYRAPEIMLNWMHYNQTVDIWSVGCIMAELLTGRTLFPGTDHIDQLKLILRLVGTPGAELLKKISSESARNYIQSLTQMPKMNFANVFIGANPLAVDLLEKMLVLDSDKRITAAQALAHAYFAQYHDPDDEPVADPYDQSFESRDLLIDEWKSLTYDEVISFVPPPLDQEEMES
Chain of VEGFR1 (P17948 27-1338): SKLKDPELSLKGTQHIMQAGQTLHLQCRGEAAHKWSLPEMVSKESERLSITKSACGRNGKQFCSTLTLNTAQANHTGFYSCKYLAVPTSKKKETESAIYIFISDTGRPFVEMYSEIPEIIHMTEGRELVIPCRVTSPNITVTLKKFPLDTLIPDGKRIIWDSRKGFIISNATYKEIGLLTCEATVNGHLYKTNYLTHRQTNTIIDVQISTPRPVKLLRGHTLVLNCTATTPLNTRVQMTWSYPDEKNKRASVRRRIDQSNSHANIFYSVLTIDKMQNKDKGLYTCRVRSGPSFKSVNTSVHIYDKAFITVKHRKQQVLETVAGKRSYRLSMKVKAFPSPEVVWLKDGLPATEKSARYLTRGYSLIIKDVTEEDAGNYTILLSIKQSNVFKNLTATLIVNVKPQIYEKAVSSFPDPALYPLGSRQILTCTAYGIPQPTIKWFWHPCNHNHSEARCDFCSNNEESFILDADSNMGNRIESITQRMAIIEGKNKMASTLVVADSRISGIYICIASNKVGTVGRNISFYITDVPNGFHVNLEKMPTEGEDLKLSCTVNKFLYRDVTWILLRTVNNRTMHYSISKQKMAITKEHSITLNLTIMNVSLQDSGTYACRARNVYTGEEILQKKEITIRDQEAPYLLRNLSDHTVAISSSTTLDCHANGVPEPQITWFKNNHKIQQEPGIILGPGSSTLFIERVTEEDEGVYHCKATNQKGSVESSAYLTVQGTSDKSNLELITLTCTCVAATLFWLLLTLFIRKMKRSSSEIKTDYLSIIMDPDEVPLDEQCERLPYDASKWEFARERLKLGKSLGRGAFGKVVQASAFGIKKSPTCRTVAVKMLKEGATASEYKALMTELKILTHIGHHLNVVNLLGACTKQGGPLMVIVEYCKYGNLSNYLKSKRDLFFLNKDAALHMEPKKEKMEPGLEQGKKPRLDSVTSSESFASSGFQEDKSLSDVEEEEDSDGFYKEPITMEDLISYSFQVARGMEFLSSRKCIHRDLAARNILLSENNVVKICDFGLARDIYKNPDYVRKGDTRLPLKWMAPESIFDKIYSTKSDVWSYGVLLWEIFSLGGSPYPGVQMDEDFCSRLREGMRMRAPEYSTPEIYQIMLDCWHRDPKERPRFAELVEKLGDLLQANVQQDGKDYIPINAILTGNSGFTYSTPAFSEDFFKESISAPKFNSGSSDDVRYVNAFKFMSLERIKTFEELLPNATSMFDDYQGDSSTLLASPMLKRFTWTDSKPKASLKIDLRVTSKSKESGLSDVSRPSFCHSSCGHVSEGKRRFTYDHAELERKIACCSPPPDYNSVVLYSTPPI

CN(C)C[C@H]1CC[C@H](N2C(=O)NCc3cnc4ccc(-c5cc(Cl)c(O)c(Cl)c5)cc4c32)CC1 [HTH-01-091, 9-(3,5-dichloro-4-hydroxyphenyl)-1-(trans-4-((dimethylamino)methyl)cyclohexyl)-3,4-dihydropyrimido[5,4 c]quinolin-2(1H)-one]
IC50 ([1]; radioactive filter-binding assay provided by the ICKP, read-out: Enzymatic IC50 SmMLCK): 109 nM
remaining activity at 1 µM [1]: 8%
remaining activity at 1 µM [2]: 119%
remaining activity at 1 µM [3]: 72%
remaining activity at 1 µM [4]: 94%
remaining activity at 1 µM [5]: 79%
remaining activity at 1 µM [6]: 66%
remaining activity at 1 µM [7]: 62%
remaining activity at 1 µM [8]: 16%
remaining activity at 1 µM [9]: 95%
antiproliferative IC50 values, fold less potent than OTSSP167 [10]: at least 300 fold
% AR (% kinase activity remaining) [11]: 74%
remaining activity at 1 µM [12]: 100%
remaining activity at 1 µM [13]: 54%
remaining activity at 1 µM [14]: 39%
IC50 [15, 39]: 3870 nM
IC50 [15, 40]: 780 nM
remaining activity at 1 µM [16]: 104%
remaining activity at 1 µM [17]: 34%
remaining activity at 1 µM [18]: 82%
remaining activity at 1 µM [19]: 98%
remaining activity at 1 µM [20]: 43%
remaining activity at 1 µM [21]: 84%
remaining activity at 1 µM [22]: 86%
remaining activity at 1 µM [23]: 81%
remaining activity at 1 µM [24]: 63%
remaining activity at 1 µM [25]: 75%
remaining activity at 1 µM [26]: 92%
remaining activity at 1 µM [27]: 93%
remaining activity at 1 µM [28]: 97%
remaining activity at 1 µM [29]: 96%
remaining activity at 1 µM [30]: 11%
remaining activity at 1 µM [31]: 35%
remaining activity at 1 µM [32]: 94%
remaining activity at 1 µM [33]: 1%
remaining activity at 1 µM [34]: 91%
remaining activity at 1 µM [35]: 35%
remaining activity at 1 µM [36]: 102%
remaining activity at 1 µM [37]: 95%
remaining activity at 1 µM [38]: 92%

CC(=O)c1cnc2ccc(-c3cc(Cl)c(O)c(Cl)c3)nc2c1N[C@H]1CC[C@H](CN(C)C)CC1 [OTSSP167]
remaining activity at 1 µM [1]: 6%
remaining activity at 1 µM [2]: 88%
remaining activity at 1 µM [3]: 12%
remaining activity at 1 µM [4]: 23%
remaining activity at 1 µM [5]: 2%
remaining activity at 1 µM [6]: 0%
remaining activity at 1 µM [7]: 3%
remaining activity at 1 µM [8]: 0%
remaining activity at 1 µM [9]: 92%
IC50 ([10]; 72 h, most cell lines tested, read-out: half maximal killing): < 100 nM
% AR (% kinase activity remaining) [11]: 3%
remaining activity at 1 µM [12]: 59%
remaining activity at 1 µM [13]: 5%
remaining activity at 1 µM [14]: 3%
IC50 [15, 39]: 106 nM
IC50 [15, 40]: 9 nM
remaining activity at 1 µM [16]: 41%
remaining activity at 1 µM [17]: 1%
remaining activity at 1 µM [18]: 4%
remaining activity at 1 µM [19]: 14%
remaining activity at 1 µM [20]: 1%
remaining activity at 1 µM [21]: 10%
remaining activity at 1 µM [22]: 12%
remaining activity at 1 µM [23]: 2%
remaining activity at 1 µM [24]: 1%
remaining activity at 1 µM [25]: 10%
remaining activity at 1 µM [26]: 4%
remaining activity at 1 µM [27]: 15%
remaining activity at 1 µM [28]: 10%
remaining activity at 1 µM [29]: 19%
remaining activity at 1 µM [30]: 0%
remaining activity at 1 µM [31]: 0%
remaining activity at 1 µM [32]: 10%
remaining activity at 1 µM [33]: 1%
remaining activity at 1 µM [34]: 2%
remaining activity at 1 µM [35]: 20%
remaining activity at 1 µM [36]: 16%
remaining activity at 1 µM [37]: 3%
remaining activity at 1 µM [38]: 2%
